Tests used:
[1] = molecular target: Na+ channel (site 2); sodium channel alpha subunit (family) (Homo sapiens, UniProt P35498+P35499+Q01118+Q14524+Q15858+Q99250+Q9NY46+Q9UI33+Q9UQD0+Q9Y5Y9); assay: Na+ channel (site 2) CEREP ligand profiling; type: protein assay; details: compound concentration 10 uM
[2] = molecular target: Peroxisome proliferator-activated receptor gamma (Homo sapiens) (UniProt P37231); assay: PPARgamma (h) CEREP ligand profiling; details: filed as agonist, Compound concentration 10.0 uM
Sequence of Peroxisome proliferator-activated receptor gamma (Homo sapiens) (P37231 whole entry): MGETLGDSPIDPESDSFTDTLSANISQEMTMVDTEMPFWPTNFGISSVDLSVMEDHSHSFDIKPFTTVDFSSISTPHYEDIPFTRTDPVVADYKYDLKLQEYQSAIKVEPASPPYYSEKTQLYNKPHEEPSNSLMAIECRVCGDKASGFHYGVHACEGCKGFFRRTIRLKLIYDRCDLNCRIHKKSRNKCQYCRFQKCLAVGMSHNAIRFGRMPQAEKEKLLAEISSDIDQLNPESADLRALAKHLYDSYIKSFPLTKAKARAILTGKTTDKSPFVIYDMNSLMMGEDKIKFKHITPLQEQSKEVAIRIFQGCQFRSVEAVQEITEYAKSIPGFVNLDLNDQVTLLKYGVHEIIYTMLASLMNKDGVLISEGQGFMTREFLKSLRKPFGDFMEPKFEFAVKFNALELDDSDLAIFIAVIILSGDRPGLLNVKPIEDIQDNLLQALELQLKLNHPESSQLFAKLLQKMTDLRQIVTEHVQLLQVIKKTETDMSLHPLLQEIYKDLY

[3] = system: Tyrosine-protein kinase ABL1 (Homo sapiens), P00519 [F317I]; details: Compound concentration 1000.0 nM
[4] = system: Tyrosine-protein kinase ABL1 (Homo sapiens), P00519 [H396P]; details: Compound concentration 1000.0 nM
[5] = molecular target: Mitogen-activated protein kinase kinase kinase 5 (Homo sapiens) (UniProt Q99683); details: Compound concentration 1000.0 nM
[6] = molecular target: Aurora kinase A (Homo sapiens) (UniProt O14965); details: Compound concentration 1000.0 nM
[7] = molecular target: Cyclin-dependent kinase 2 (Homo sapiens) (UniProt P24941); details: Compound concentration 1000.0 nM
[8] = molecular target: Cyclin-dependent kinase 3 (Homo sapiens) (UniProt Q00526); details: Compound concentration 1000.0 nM
[9] = molecular target: Citron Rho-interacting kinase (Homo sapiens) (UniProt O14578); details: Compound concentration 1000.0 nM
[10] = molecular target: Macrophage colony-stimulating factor 1 receptor (Homo sapiens) (UniProt P07333); details: Compound concentration 1000.0 nM
[11] = molecular target: Death-associated protein kinase 1 (Homo sapiens) (UniProt P53355); details: Compound concentration 1000.0 nM
[12] = system: Epidermal growth factor receptor (Homo sapiens), P00533 [L861Q]; details: Compound concentration 1000.0 nM
[13] = molecular target: Eukaryotic translation initiation factor 2-alpha kinase 1 (Homo sapiens) (UniProt Q9BQI3); details: Compound concentration 1000.0 nM
[14] = molecular target: Mitogen-activated protein kinase 6 (Homo sapiens) (UniProt Q16659); details: Compound concentration 1000.0 nM
Sequence of Mitogen-activated protein kinase 6 (Homo sapiens) (Q16659 whole entry): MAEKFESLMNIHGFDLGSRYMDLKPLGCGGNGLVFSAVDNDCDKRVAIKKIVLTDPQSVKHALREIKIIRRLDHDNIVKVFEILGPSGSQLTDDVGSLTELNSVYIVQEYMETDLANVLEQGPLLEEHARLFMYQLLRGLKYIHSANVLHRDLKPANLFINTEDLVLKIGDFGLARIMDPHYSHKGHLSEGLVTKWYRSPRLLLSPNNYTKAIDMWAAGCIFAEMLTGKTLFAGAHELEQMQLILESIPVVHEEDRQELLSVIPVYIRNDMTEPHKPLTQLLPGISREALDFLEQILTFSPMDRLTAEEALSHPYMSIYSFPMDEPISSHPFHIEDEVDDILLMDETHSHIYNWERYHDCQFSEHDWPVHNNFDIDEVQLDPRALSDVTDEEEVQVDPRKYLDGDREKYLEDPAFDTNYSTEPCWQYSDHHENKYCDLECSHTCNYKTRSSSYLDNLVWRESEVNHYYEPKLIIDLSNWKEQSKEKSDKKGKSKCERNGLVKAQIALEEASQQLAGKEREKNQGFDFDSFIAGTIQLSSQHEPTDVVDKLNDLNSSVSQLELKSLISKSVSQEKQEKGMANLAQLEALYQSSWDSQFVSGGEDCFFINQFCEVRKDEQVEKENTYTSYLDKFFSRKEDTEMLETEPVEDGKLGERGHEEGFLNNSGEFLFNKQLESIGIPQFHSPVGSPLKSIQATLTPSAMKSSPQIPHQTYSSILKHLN

[15] = molecular target: Receptor-type tyrosine-protein kinase FLT3 (Homo sapiens) (UniProt P36888); details: Compound concentration 1000.0 nM
[16] = system: Receptor-type tyrosine-protein kinase FLT3 (Homo sapiens), P36888 [UNDEFINED MUTATION]; details: Compound concentration 1000.0 nM
[17] = system: eIF-2-alpha kinase GCN2 (Homo sapiens), Q9P2K8 [S808G]; details: Compound concentration 1000.0 nM
[18] = molecular target: Serine/threonine-protein kinase haspin (Homo sapiens) (UniProt Q8TF76); details: Compound concentration 1000.0 nM
[19] = molecular target: Homeodomain-interacting protein kinase 2 (Homo sapiens) (UniProt Q9H2X6); details: Compound concentration 1000.0 nM
[20] = molecular target: Tyrosine-protein kinase JAK2 (Homo sapiens) (UniProt O60674); details: Compound concentration 1000.0 nM
[21] = system: Mast/stem cell growth factor receptor Kit (Homo sapiens), P10721 [D816V]; details: Compound concentration 1000.0 nM
[22] = molecular target: Mitogen-activated protein kinase kinase kinase 1 (Homo sapiens) (UniProt Q13233); details: Compound concentration 1000.0 nM
Sequence of Mitogen-activated protein kinase kinase kinase 1 (Homo sapiens) (Q13233 whole entry): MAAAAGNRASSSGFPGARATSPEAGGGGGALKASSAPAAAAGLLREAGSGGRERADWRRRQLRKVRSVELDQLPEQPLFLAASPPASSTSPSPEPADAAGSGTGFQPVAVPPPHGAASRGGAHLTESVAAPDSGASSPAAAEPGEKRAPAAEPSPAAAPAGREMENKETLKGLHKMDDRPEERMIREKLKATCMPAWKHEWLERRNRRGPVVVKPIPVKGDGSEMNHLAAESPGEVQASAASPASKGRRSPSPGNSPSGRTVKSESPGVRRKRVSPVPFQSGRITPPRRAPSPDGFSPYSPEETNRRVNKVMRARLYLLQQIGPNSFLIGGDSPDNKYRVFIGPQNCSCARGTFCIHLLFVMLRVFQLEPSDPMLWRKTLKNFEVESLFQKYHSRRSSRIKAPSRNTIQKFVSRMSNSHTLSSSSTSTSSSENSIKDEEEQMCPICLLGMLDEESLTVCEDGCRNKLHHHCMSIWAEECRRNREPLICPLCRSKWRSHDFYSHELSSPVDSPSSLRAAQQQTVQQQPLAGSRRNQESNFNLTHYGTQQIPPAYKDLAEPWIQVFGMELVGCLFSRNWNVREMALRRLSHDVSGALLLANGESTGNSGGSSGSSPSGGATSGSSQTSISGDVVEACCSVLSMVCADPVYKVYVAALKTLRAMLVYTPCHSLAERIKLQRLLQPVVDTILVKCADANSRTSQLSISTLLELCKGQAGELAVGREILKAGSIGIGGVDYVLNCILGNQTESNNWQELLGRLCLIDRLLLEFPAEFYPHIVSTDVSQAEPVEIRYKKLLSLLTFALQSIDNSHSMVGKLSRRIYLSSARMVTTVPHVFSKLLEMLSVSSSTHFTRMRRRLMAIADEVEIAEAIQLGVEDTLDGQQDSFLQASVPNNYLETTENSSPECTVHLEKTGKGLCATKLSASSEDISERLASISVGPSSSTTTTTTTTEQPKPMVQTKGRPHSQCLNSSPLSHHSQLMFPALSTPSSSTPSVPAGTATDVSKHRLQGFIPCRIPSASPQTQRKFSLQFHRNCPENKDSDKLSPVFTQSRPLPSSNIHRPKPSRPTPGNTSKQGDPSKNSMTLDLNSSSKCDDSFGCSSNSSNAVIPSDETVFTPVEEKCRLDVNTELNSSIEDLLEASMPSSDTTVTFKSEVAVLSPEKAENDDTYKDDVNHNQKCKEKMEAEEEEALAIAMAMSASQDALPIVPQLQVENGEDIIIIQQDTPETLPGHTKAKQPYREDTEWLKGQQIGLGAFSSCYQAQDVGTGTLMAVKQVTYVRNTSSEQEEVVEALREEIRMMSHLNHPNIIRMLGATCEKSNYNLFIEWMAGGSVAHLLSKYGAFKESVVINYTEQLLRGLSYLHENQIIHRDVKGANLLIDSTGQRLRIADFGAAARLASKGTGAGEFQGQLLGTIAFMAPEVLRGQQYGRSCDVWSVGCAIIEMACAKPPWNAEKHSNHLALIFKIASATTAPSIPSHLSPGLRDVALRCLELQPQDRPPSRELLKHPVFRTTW

[23] = molecular target: Serine/threonine-protein kinase MARK2 (Homo sapiens) (UniProt Q7KZI7); details: Compound concentration 1000.0 nM
[24] = molecular target: MAP/microtubule affinity-regulating kinase 3 (Homo sapiens) (UniProt P27448); details: Compound concentration 1000.0 nM
[25] = molecular target: Myosin-IIIb (Homo sapiens) (UniProt Q8WXR4); details: Compound concentration 1000.0 nM
[26] = molecular target: Serine/threonine-protein kinase Nek11 (Homo sapiens) (UniProt Q8NG66); details: Compound concentration 1000.0 nM
[27] = molecular target: Serine/threonine-protein kinase NIM1 (Homo sapiens) (UniProt Q8IY84); details: Compound concentration 1000.0 nM
Sequence of Serine/threonine-protein kinase NIM1 (Homo sapiens) (Q8IY84 whole entry): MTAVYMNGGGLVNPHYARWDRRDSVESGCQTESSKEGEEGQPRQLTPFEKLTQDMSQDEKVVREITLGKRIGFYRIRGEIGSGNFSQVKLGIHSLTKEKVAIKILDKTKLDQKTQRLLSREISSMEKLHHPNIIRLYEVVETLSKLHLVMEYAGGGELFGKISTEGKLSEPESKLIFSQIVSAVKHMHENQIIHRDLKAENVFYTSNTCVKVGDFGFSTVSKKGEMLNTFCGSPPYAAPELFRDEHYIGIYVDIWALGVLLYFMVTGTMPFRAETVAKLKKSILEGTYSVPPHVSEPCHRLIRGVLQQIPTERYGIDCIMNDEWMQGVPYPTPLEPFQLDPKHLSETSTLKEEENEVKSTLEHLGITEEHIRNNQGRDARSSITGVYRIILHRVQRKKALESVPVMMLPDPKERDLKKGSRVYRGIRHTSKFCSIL

[28] = molecular target: Phosphatidylinositol 5-phosphate 4-kinase type-2 gamma (Homo sapiens) (UniProt Q8TBX8); details: Compound concentration 1000.0 nM
Sequence of Phosphatidylinositol 5-phosphate 4-kinase type-2 gamma (Homo sapiens) (Q8TBX8 whole entry): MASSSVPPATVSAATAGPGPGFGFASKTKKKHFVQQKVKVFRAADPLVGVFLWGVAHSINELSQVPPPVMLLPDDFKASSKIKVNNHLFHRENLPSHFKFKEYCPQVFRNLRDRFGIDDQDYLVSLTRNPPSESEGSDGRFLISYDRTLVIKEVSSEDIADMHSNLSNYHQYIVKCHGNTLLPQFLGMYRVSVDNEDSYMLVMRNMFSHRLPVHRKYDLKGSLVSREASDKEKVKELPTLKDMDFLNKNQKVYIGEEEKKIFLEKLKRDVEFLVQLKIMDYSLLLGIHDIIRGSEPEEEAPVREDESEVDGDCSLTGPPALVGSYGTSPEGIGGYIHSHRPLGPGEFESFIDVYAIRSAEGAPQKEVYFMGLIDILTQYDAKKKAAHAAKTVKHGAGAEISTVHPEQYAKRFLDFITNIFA

[29] = molecular target: Ribosomal protein S6 kinase alpha-5 (Homo sapiens) (UniProt O75582); details: Compound concentration 1000.0 nM
[30] = molecular target: Serine/threonine-protein kinase 35 (Homo sapiens) (UniProt Q8TDR2); details: Compound concentration 1000.0 nM
Sequence of Serine/threonine-protein kinase 35 (Homo sapiens) (Q8TDR2 whole entry): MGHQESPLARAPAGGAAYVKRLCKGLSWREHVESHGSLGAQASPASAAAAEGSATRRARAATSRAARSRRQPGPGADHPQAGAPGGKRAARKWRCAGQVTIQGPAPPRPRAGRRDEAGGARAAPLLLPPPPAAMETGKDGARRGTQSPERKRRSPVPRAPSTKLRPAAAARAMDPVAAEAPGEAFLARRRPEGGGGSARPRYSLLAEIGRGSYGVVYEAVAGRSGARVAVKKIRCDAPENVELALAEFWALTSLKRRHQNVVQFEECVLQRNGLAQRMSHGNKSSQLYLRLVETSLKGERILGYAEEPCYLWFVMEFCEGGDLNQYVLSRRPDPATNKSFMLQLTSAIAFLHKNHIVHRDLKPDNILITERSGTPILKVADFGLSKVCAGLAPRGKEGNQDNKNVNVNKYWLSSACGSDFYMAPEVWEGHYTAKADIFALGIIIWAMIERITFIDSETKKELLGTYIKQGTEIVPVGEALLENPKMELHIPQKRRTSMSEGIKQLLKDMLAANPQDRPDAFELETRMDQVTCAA

[31] = molecular target: Dual specificity testis-specific protein kinase 1 (Homo sapiens) (UniProt Q15569); details: Compound concentration 1000.0 nM
[32] = molecular target: 5-hydroxytryptamine receptor 6 (Homo sapiens) (UniProt P50406); details: Compound concentration 10.0 uM
Sequence of 5-hydroxytryptamine receptor 6 (Homo sapiens) (P50406 whole entry): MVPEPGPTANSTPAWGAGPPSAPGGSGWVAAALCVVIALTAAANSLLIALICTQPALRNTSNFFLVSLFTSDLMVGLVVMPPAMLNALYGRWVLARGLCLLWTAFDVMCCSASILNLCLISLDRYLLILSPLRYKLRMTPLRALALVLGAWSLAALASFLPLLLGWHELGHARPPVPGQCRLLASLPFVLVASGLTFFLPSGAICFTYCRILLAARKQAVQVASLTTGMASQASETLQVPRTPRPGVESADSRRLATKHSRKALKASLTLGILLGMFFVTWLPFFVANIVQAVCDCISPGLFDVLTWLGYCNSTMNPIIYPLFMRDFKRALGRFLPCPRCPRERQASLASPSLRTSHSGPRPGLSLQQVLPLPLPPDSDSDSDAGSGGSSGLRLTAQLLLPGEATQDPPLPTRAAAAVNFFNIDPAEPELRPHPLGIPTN

[33] = molecular target: Histamine H2 receptor (Homo sapiens) (UniProt P25021); details: Compound concentration 10.0 uM
Sequence of Histamine H2 receptor (Homo sapiens) (P25021 whole entry): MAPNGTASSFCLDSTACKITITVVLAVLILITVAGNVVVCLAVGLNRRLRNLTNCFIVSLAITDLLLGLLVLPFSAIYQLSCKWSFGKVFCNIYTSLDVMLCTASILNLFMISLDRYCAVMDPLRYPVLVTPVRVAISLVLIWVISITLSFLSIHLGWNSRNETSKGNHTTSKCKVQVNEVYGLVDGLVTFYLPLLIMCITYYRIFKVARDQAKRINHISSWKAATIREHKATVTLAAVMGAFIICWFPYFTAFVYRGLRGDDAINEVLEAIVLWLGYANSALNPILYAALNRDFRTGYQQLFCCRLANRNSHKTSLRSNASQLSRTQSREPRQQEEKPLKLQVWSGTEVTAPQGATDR

[34] = molecular target: T1, Alpha-1B adrenergic receptor (Homo sapiens) (UniProt P35368); details: Compound concentration 10.0 uM
T1 sequence (whole entry): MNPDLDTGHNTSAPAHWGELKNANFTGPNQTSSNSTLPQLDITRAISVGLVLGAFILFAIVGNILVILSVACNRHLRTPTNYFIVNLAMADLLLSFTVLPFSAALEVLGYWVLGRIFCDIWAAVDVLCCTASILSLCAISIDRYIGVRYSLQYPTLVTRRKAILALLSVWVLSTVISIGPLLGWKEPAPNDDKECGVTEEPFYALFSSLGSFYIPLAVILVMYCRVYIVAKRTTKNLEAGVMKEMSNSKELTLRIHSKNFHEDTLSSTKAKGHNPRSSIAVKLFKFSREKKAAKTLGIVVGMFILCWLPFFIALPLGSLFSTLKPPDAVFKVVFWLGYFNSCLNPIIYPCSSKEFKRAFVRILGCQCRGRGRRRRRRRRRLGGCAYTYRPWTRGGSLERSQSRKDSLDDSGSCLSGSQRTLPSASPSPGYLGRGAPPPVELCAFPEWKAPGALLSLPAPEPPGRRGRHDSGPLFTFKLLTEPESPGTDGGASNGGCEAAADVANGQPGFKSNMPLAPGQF

[35] = molecular target: GABA-A receptor; anion channel (Rattus norvegicus) (UniProt O09028+P15431+P18506+P18508+P19969+P20236+P23574+P23576+P28471+P28473+P30191+P62813+P63079+P63138+Q91ZM7+Q9ES14); details: Compound concentration 10.0 uM

| SMILES | inhibition at 10 µM [1] | inhibition [2] [%] | residual activity [3] [%] | residual activity [4] [%] | residual activity [5] [%] | residual activity [6] [%] | residual activity [7] [%] | residual activity [8] [%] | residual activity [9] [%] | residual activity [10] [%] | residual activity [11] [%] | residual activity [12] [%] | residual activity [13] [%] | residual activity [14] [%] | residual activity [15] [%] | residual activity [16] [%] | residual activity [17] [%] | residual activity [18] [%] | residual activity [19] [%] | residual activity [20] [%] | also measured |
| --- | --- | --- | --- | --- | --- | --- | --- | --- | --- | --- | --- | --- | --- | --- | --- | --- | --- | --- | --- | --- | --- |
| CNC(=O)Nc1ccc2c(c1)CC[C@@]21OC(=O)N(CC(=O)N(Cc2ccc(F)cc2)[C@@H](C)C(F)(F)F)C1=O [A-485] | 19% (not active) | 10 | 71 | 49 | 94 | 80 | 100 | 100 | 92 | 90 | 96 | 94 | 80 | 100 | 100 | 84 | 92 | 100 | 95 | 83 | residual activity [21]: 70%; residual activity [22]: 68%; residual activity [23]: 100%; residual activity [24]: 100%; residual activity [25]: 88%; residual activity [26]: 91%; residual activity [27]: 71%; residual activity [28]: 93%; residual activity [29]: 97%; residual activity [30]: 89%; residual activity [31]: 73%; inhibition [32]: 32.6%; inhibition [33]: 28.2%; inhibition [34]: 1.93%; inhibition [35]: 19.7% |
| CNC(=O)Nc1ccc2c(c1)[C@@]1(CC2)OC(=O)N(CC(=O)N(Cc2ccc(F)cc2)[C@@H](C)C(F)(F)F)C1=O [A-486] | -5% (not active) | 1 | 78 | 53 | 100 | 79 | 100 | 100 | 100 | 100 | 100 | 100 | 96 | 97 | 96 | 87 | 100 | 83 | 78 | 100 | residual activity [21]: 96%; residual activity [22]: 95%; residual activity [23]: 100%; residual activity [24]: 100%; residual activity [25]: 100%; residual activity [26]: 84%; residual activity [27]: 76%; residual activity [28]: 100%; residual activity [29]: 74%; residual activity [30]: 85%; residual activity [31]: 100%; inhibition [32]: 24.1%; inhibition [33]: 6.93%; inhibition [34]: -1.33%; inhibition [35]: 15.6% |
